Measurements: ChEMBL document CHEMBL1133926, “Optimization of a screening lead for factor VIIa/TF” (Bioorg Med Chem Lett, 2001)
Activity calls are given as the source filed them. The calls are words filed in the database; no cut-off is given here.

Tests used:
[1] = target: Coagulation factor VII/tissue factor (Homo sapiens, UniProt P08709); assay: Binding affinity for factor VIIa/TF; format: protein-complex assay
Plasminogen [2] = target: T1, Plasminogen (Homo sapiens, UniProt P00747); assay: Relative affinity for Plasmin compared to compound 1
T1 sequence (P00747 97-580 limits assumed): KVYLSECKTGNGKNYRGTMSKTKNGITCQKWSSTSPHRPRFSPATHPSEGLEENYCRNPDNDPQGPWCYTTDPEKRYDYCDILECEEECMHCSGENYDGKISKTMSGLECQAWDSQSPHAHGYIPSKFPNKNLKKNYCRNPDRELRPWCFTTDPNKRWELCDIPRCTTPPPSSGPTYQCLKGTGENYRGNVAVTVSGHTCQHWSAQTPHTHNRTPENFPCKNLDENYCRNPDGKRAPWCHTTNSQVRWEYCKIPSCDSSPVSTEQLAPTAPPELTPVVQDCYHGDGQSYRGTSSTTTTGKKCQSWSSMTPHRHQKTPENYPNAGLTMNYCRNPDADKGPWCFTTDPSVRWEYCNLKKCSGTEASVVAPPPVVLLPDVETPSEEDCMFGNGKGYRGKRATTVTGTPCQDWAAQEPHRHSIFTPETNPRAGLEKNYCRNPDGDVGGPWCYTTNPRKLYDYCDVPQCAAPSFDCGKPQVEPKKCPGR
T1 sequence (P00747 581-810 limits assumed): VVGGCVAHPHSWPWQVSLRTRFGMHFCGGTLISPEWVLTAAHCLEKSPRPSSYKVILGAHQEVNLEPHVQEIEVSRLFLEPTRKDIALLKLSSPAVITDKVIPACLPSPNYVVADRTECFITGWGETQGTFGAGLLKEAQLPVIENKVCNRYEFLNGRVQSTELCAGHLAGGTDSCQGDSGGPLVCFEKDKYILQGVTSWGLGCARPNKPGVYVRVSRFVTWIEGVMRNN

Prothrombin [3] = target: T2, Prothrombin (Homo sapiens, UniProt P00734); assay: Binding affinity for Coagulation factor II relative to compound 1
Serine protease 1 [4] = target: T3, Serine protease 1 (Homo sapiens, UniProt P07477); assay: Relative binding affinity towards Trypsin
T3 sequence (P07477 whole entry): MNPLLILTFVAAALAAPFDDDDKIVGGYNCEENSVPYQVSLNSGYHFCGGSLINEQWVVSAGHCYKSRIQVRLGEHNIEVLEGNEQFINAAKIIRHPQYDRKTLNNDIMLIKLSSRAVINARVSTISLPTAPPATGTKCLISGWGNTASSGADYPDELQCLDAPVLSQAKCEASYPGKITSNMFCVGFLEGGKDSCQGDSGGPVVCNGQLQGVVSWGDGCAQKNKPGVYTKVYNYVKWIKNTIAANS

[5] = target: T4, Urokinase-type plasminogen activator (Homo sapiens, UniProt P00749); assay: Relative binding affinity for urokinase-type plasminogen activator
Coagulation factor X [6] = target: T5, Coagulation factor X (Homo sapiens, UniProt P00742); assay: Binding affinity for Coagulation factor X with respect to compound 1
T5 sequence (P00742 41-179 limits assumed): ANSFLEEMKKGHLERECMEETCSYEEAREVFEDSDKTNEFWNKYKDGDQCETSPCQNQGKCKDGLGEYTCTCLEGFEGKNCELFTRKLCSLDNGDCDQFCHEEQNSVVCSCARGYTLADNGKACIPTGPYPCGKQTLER
T5 sequence (P00742 235-488 limits assumed): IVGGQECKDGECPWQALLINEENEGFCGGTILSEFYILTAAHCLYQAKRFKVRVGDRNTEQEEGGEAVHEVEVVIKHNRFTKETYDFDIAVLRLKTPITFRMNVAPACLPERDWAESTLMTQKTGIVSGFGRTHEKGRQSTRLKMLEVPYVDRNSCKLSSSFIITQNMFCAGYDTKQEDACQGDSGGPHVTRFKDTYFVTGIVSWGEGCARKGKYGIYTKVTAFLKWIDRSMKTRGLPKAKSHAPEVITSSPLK

Coagulation factor VII = target: T6, Coagulation factor VII (Homo sapiens, UniProt P08709); assay: Binding affinity towards factor VIIa/TF was determined
T6 sequence (P08709 whole entry): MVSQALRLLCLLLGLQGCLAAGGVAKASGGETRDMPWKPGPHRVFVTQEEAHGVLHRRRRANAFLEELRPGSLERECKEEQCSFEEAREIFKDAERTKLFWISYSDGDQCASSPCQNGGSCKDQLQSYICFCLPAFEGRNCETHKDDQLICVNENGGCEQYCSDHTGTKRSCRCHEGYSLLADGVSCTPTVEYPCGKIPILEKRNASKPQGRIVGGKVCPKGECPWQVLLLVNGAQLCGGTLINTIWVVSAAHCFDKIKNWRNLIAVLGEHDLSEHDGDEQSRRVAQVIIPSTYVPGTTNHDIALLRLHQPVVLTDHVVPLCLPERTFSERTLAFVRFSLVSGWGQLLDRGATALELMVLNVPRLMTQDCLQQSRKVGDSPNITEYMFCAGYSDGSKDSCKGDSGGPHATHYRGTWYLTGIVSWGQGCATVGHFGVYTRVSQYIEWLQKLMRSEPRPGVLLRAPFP

Prothrombin [7] = target: T2, Prothrombin; assay: Binding affinity towards Thrombin with respect to compound 1
Homo sapiens [8] = species on record: Homo sapiens; assay: (§1) In vitro anticoagulant activity in human plasma to double the prothrombin time (2x PT); format: functional
Coagulation factor X [9] = target: T5, Coagulation factor X; assay: Binding affinity towards coagulation factor X with respect to compound 1
[10] = as §1; format: functional
Homo sapiens [11] = species on record: Homo sapiens; assay: In vitro anticoagulant activity in human plasma to double the prothrombin time (2xP T); Not active; format: functional, cell-free
Prothrombin [12] = target: T2, Prothrombin; assay: Binding affinity towards Coagulation factor II
Plasminogen [13] = target: T1, Plasminogen; assay: Binding affinity towards Plasmin
Serine protease 1 [14] = target: T3, Serine protease 1; assay: Binding affinity towards Trypsin
Coagulation factor X [15] = target: T5, Coagulation factor X; assay: Binding affinity towards Coagulation factor X
[16] = target: T4, Urokinase-type plasminogen activator; assay: Binding affinity towards urokinase-type plasminogen activator (microPa)

Sequence of Coagulation factor VII/tissue factor (P13726 33-295 partner limits assumed, one chain of several): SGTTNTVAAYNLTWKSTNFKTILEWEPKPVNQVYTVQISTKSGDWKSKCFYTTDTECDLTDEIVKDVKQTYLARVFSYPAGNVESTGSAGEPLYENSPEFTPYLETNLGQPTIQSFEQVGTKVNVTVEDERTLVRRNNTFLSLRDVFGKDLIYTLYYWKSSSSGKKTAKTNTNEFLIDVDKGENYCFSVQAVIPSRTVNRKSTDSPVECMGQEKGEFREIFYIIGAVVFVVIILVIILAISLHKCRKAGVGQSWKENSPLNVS

Row | Structure (SMILES) | Ki [1] | Selectivity (Plasminogen [2]) | Selectivity (Prothrombin [3]) | Selectivity (Serine protease 1 [4]) | Selectivity [5] | Selectivity (Coagulation factor X [6]) | further results
1 | N=C(N)c1ccc2[nH]c(-c3cc(CC(=O)O)cc(-c4cccc(Cl)c4)c3O)cc2c1 | 33 nM | 17 | 112 | 3 | 4 | 5 | 
2 | N=C(N)c1ccc2[nH]c(-c3cc(CC(=O)O)cc(-c4cccc(N)c4)c3O)cc2c1 | 12 nM | 27 | 550 | 83 | 6 | 26 | 
3 | N=C(N)c1ccc2[nH]c(-c3cc(-c4nnn[nH]4)cc(-c4cccc([N+](=O)[O-])c4)c3O)cc2c1 |  |  |  |  |  |  | Ki (Coagulation factor VII): 50 nM
4 | N=C(N)c1ccc2[nH]c(-c3cc(-c4nn[nH]n4)cc(-c4cccc([N+](=O)[O-])c4)c3O)cc2c1 |  | 20 |  | 40 | 15 |  | Selectivity (Prothrombin [7]): 140; 2x PT (Homo sapiens [8]): 16 µM; Selectivity (Coagulation factor X [9]): 0.5
5 | N=C(N)c1ccc2[nH]c(-c3cc(CCC(=O)O)cc(-c4cccc([N+](=O)[O-])c4)c3O)cc2c1 | 27 nM | 6 | 59 | 37 | 6 | 2 | 2x PT [10]: 2.2 µM
6 | N=C(N)c1ccc2[nH]c(-c3cc(CC(=O)O)cc(-c4cccc([N+](=O)[O-])c4)c3O)cc2c1 | 3 nM | 90 | 960 | 160 | 64 | 20 | 2x PT [10]: 1.7 µM
7 | N=C(N)c1cccc(-c2cc(CC(=O)O)cc(-c3cc4cc(C(=N)N)ccc4[nH]3)c2O)c1 | 430 nM | 3 | 140 | 2 | 0.6 | 4 | 
8 | N=C(N)c1ccc2[nH]c(-c3cc(CC(=O)O)cc(-c4cccc(C(=O)O)c4)c3O)cc2c1 | 320 nM | 5 | 375 | 1 | 6 | 0.5 | 
9 | N=C(N)c1ccc2[nH]c(-c3cc(CCOP(=O)(O)O)cc(-c4cccc([N+](=O)[O-])c4)c3O)cc2c1 | 3 nM | 33 | 870 | 63 | 21 | 5 | 2x PT (Homo sapiens [11]): inactive
10 | N=C(N)c1ccc2[nH]c(-c3cc(CC(=O)O)cc(-c4ccccc4)c3O)cc2c1 | 41 nM | 6 | 49 | 1 | 1 | 4 | 
11 | N=C(N)c1ccc2[nH]c(-c3cc(CC(=O)O)cc(-c4cccc(OP(=O)(O)O)c4)c3O)cc2c1 | 950 nM | 4 | 87 | inactive | 4 | 1 | 
12 | N=C(N)c1ccc2[nH]c(-c3cc(CC(=O)O)cc(-c4cccc(-c5nn[nH]n5)c4)c3O)cc2c1 |  | 2 | 100 | 3 | 2 | 0.5 | 
13 | N=C(N)c1ccc2[nH]c(-c3cc(C(=O)O)cc(-c4cccc([N+](=O)[O-])c4)c3O)cc2c1 | 5 nM | 75 | 420 | 70 | 44 | 42 | 2x PT [10]: 4.1 µM
14 | N=C(N)c1ccc2[nH]c(-c3cc(CC(N)C(=O)O)cc(-c4cccc([N+](=O)[O-])c4)c3O)cc2c1 (stereo not given) |  | 3 |  | 5 | 1 |  | Selectivity (Prothrombin [7]): 40; 2x PT (Homo sapiens [8]): 0.73 µM; Selectivity (Coagulation factor X [9]): 0.5; Ki (Coagulation factor VII): 50 nM
15 | N=C(N)c1ccc2[nH]c(-c3cc(CC(=O)O)cc(-c4cccc(-c5nnn[nH]5)c4)c3O)cc2c1 | 480 nM |  |  |  |  |  | 
16 | N=C(N)c1ccc2nc(-c3cc(Cl)cc(-c4cccc(N)c4)c3O)[nH]c2c1 | 78 nM |  |  |  |  |  | Ki (Prothrombin [12]): 4.2 nM; Ki (Plasminogen [13]): 3200 nM; Ki (Serine protease 1 [14]): 4700 nM; Ki (Coagulation factor X [15]): 0.5 nM; Ki [16]: 0.46 nM
